Patent US10787446B2 (GENENTECH, INC., priority 2015, dated 2020)

Target: T1, hNav1.7 and the β1 subunit (Homo sapiens, UniProt Q15858)
T1 construct: expressed in transfected cells
Assay: Tritiated compound competitive binding to membranes from cells heterologously expressing hNav1.7 and the β1 subunit (LBA)
Settings: competition with 100 pM [3H]compound, 18 h, room temperature; IC50 by 4 parameter logistic model
In short: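 Membranes were incubated 18 h at room temperature with 100 pM [3H]-labelled NaV1.7 inhibitor and increasing test compound in 100 mM NaCl, 20 mM Tris HCl, pH 7.4. Bound radioligand was filtered on PEI-soaked GF/C, washed, and counted by scintillation. IC50 from a 4-parameter logistic fit of % inhibition.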

T1 sequence (Q15858 whole entry): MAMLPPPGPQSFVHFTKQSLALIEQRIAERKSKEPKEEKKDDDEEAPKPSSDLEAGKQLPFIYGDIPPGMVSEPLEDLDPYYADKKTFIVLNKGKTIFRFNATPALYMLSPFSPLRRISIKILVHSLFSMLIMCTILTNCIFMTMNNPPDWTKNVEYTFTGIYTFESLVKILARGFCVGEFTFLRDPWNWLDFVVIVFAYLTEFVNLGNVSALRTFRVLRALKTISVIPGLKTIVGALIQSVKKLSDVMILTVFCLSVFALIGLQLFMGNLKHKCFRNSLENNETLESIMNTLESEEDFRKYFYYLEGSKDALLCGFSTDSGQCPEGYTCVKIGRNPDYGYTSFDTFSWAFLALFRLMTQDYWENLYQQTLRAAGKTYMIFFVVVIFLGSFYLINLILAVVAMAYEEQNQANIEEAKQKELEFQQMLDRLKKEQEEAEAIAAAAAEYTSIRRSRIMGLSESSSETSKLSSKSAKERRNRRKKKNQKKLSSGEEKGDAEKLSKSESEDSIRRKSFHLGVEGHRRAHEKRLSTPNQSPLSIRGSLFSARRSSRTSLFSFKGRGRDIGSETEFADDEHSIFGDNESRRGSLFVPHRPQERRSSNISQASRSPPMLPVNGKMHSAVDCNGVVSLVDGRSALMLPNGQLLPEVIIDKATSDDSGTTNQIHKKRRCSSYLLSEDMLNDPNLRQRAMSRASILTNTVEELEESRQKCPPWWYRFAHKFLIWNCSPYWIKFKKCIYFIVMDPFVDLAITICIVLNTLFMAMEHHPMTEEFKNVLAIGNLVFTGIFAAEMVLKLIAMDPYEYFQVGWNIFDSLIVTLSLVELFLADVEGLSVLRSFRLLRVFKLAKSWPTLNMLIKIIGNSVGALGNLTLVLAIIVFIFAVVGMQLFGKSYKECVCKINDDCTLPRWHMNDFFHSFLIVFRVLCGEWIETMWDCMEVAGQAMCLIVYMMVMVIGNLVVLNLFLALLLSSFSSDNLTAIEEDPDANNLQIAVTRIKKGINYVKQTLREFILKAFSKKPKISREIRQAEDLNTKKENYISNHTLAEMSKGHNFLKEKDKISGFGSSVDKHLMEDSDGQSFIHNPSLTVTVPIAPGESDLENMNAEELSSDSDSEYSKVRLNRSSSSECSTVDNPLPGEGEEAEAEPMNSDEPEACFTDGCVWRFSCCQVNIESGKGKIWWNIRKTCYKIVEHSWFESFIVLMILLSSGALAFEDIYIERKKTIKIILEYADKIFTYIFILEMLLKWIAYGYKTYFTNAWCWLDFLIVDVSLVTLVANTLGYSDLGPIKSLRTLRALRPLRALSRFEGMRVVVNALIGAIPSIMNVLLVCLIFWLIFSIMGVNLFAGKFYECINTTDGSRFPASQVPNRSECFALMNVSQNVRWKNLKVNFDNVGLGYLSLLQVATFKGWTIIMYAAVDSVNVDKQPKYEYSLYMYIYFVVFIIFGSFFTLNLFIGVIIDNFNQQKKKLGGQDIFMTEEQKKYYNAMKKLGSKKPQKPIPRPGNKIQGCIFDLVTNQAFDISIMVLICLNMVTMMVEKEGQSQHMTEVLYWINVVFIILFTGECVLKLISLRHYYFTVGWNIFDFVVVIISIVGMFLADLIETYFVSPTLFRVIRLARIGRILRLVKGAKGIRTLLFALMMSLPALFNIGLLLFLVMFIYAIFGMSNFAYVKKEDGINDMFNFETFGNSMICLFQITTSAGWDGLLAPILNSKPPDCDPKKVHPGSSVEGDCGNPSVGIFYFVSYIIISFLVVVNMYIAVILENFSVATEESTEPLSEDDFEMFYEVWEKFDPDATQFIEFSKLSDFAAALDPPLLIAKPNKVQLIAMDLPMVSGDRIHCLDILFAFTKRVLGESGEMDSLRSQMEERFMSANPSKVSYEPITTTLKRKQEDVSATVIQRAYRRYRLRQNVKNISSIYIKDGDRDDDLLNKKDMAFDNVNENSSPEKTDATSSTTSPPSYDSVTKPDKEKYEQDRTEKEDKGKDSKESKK
T1 sequence (Q07699 19-218 partner): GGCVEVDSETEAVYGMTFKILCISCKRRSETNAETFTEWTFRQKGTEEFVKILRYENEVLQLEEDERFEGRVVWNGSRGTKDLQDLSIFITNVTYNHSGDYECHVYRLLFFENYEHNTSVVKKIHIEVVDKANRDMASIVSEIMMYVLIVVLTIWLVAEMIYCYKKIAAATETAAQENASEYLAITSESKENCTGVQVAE

Row | Compound | Nav1.7 (LBA) [µM]
1 | O=S(=O)(Nc1ncns1)c1ccc(CN2CCCC[C@@H]2c2ccccc2)c(Cl)c1 [Example 64, (R)-3-chloro-4-((2-phenylpiperidin-1-yl)methyl)-N-(1,2,4-thiadiazol-5-yl)benzenesulfonamide] | 0.965
2 | O=S(=O)(Nc1ncns1)c1ccc(CN2CCCC[C@H]2c2ccccc2)c(Cl)c1 [Example 65, (S)-3-chloro-4-((2-phenylpiperidin-1-yl)methyl)-N-(1,2,4-thiadiazol-5-yl)benzenesulfonamide] | 5.51
3 | O=S(=O)(Nc1ncns1)c1cc(Cl)c(CN2CCCCC2c2ccccc2)cc1F (centres unmarked) [Example 68, 5-chloro-2-fluoro-4-((2-phenylpiperidin-1-yl)methyl)-N-(1,2,4-thiadiazol-5-yl)benzenesulfonamide] | 0.334
4 | O=S(=O)(Nc1ncns1)c1cc(Cl)c(CN2CCCCC2c2ccncc2)cc1F (centres unmarked) [Example 69, 5-chloro-2-fluoro-4-((2-(pyridin-4-yl)piperidin-1-yl)methyl)-N-(1,2,4-thiadiazol-5-yl)benzenesulfonamide] | 0.21
5 | O=S(=O)(Nc1ncns1)c1cc(Cl)c(CN2CCCC[C@H]2c2cccnc2)cc1F [Example 70, (S)-5-chloro-2-fluoro-4-((2-(pyridin-3-yl)piperidin-1-yl)methyl)-N-(1,2,4-thiadiazol-5-yl)benzenesulfonamide] | 0.175
6 | O=S(=O)(Nc1cccc(F)n1)c1ccc(CN2CCCC[C@H]2c2ccccc2)c(Cl)c1 [Example 73, (S)-3-chloro-N-(6-fluoropyridin-2-yl)-4-((2-phenylpiperidin-1-yl)methyl)-benzenesulfonamide] | 6.8
7 | O=S(=O)(Nc1cccc(F)n1)c1ccc(CN2CCCC[C@@H]2c2ccccc2)c(Cl)c1 [Example 74, (R)-3-chloro-N-(6-fluoropyridin-2-yl)-4-((2-phenylpiperidin-1-yl)methyl)-benzenesulfonamide] | 2.67
8 | O=S(=O)(Nc1ncns1)c1ccc2c(c1)OCCC2N1CCOC[C@H]1c1ccccc1 (stereo partly drawn) [Example 75, 4-((R)-3-phenylmorpholino)-N-(1,2,4-thiadiazol-5-yl)chromane-7-sulfonamide] | 0.0859
9 | CN(Cc1ccccc1)[C@H]1CCOc2cc(S(=O)(=O)Nc3ncns3)c(F)cc21 [Example 89, (S)-4-(benzyl(methyl)amino)-6-fluoro-N-(1,2,4-thiadiazol-5-yl)chromane-7-sulfonamide] | 0.096
10 | O=S(=O)(Nc1ncns1)c1ccc2c(c1)OCC[C@@H]2N1CC[C@@H](C(F)(F)F)C[C@H]1c1ccc(F)c(F)c1 [Example 106, (S)-4-((2S,4R)-2-(3,4-difluorophenyl)-4-(trifluoromethyl)piperidin-1-yl)-N-(1,2,4-thiadiazol-5-yl)chroman-7-sulfonamide] | 0.0016
11 | O=S(=O)(Nc1ncns1)c1ccc2c(c1)OCC[C@@H]2N1CC[C@@H](C(F)(F)F)C[C@@H]1c1ccc(F)c(F)c1 [Example 107, (S)-4-((2R,4R)-2-(3,4-difluorophenyl)-4-(trifluoromethyl)piperidin-1-yl)-N-(1,2,4-thiadiazol-5-yl)chroman-7-sulfonamide] | 2.0
12 | O=S(=O)(Nc1ncns1)c1cc(F)c(CN2CCC3(CC3)C[C@H]2c2ccccc2)cc1F [Example 110, (S)-2,5-difluoro-4-((5-phenyl-6-azaspiro[2.5]octan-6-yl)methyl)-N-(1,2,4-thiadiazol-5-yl)benzenesulfonamide] | 0.337
13 | O=S(=O)(Nc1ncns1)c1cc(F)c(CN2CC[C@H](OC(F)(F)F)C[C@@H]2c2ccccc2)cc1F [Example 112, 2,5-Difluoro-4-(((2R,4S)-2-phenyl-4-(trifluoromethoxy)piperidin-1-yl)methyl)-N-(1,2,4-thiadiazol-5-yl)benzenesulfonamide] | 4.21
14 | O=S(=O)(Nc1ncns1)c1cc(F)c(CN2CC[C@@H](O)C[C@H]2c2ccccc2)cc1F [Example 114, 2,5-Difluoro-4-(((2S,4R)-4-hydroxy-2-phenylpiperidin-1-yl)methyl)-N-(1,2,4-thiadiazol-5-yl)benzenesulfonamide] | 9.65
15 | Nc1[nH]ncc1C1CCCCN1Cc1cc(F)c(S(=O)(=O)Nc2ncns2)cc1F (centres unmarked) [Example 118, 4-((2-(5-Amino-1H-pyrazol-4-yl)piperidin-1-yl)methyl)-2,5-difluoro-N-(1,2,4-thiadiazol-5-yl)benzenesulfonamide] | 2.26
16 | N#Cc1cc(S(=O)(=O)Nc2ncns2)ccc1CN1CC[C@@H](C(F)(F)F)C[C@H]1c1ccccc1 [Example 119, 3-Cyano-4-(((2S,4R)-2-phenyl-4-(trifluoromethyl)piperidin-1-yl)methyl)-N-(1,2,4-thiadiazol-5-yl)benzenesulfonamide] | 0.0181

Row | Compound | Nav1.7 (LBA) [µM]
17 | CN(Cc1ccccc1)[C@H]1CCOc2cc(S(=O)(=O)Nc3ncns3)ccc21 [Example 120, (S)-4-(benzyl(methyl)amino)-N-(1,2,4-thiadiazol-5-yl)chroman-7-sulfonamide] | 0.376
18 | N#CC1CCN([C@H]2CCOc3cc(S(=O)(=O)Nc4ncns4)ccc32)CC1 [Example 147, (S)-4-(4-cyanopiperidine-1-yl)-N-(1,2,4-thiadiazol-5-yl)chromane-7-sulfonamide] | 5.36
19 | CC1(C#N)CCN([C@H]2CCOc3cc(S(=O)(=O)Nc4ncns4)ccc32)CC1 [Example 149, (S)-4-(4-cyano-4-methylpiperidin-1-yl)-N-(1,2,4-thiadiazol-5-yl)chromane-7-sulfonamide] | 8.6
20 | O=S(=O)(Nc1ncns1)c1ccc2c(c1)OCC[C@@H]2N1CCC(C(F)F)CC1 [Example 150, (S)-4-(4-(difluoromethyl)piperidin-1-yl)-N-(1,2,4-thiadiazol-5-yl)chromane-7-sulfonamide] | 1.44
21 | O=S(=O)(Nc1ncns1)c1ccc2c(c1)OCC[C@@H]2N1CCC2(CC1)COC2 [Example 153, (S)-4-(2-oxa-7-azaspiro[3.5]nonan-7-yl)-N-(1,2,4-thiadiazol-5-yl)chromane-7-sulfonamide] | 5.5
22 | N#CC1CC12CCN([C@H]1CCOc3cc(S(=O)(=O)Nc4ncns4)ccc31)CC2 (some centres unmarked) [Example 154] | 4.52
23 | Cn1nccc1[C@@H]1C[C@H](C(F)(F)F)CCN1[C@@H]1CCOc2cc(S(=O)(=O)Nc3nccs3)c(F)cc21 [Example 159] | 0.18
24 | Cn1nccc1[C@H]1C[C@@H](C(F)(F)F)CCN1[C@@H]1CCOc2cc(S(=O)(=O)Nc3nccs3)c(F)cc21 [Example 160] | 0.442
25 | CS(=O)(=O)[C@@H]1CCN([C@H]2CCOc3cc(S(=O)(=O)Nc4ncns4)ccc32)[C@H](c2ccc(F)cc2)C1 [Example 161, (S)-4-((2S,4R)-2-(4-fluorophenyl)-4-(methylsulfonyl)piperidin-1-yl)-N-(1,2,4-thiadiazol-5-yl)chroman-7-sulfonamide] | 0.00853
26 | CS(=O)(=O)[C@@H]1CCN([C@@H]2CCOc3cc(S(=O)(=O)Nc4ncns4)ccc32)[C@H](c2ccc(F)cc2)C1 [Example 162, (R)-4-((2S,4R)-2-(4-fluorophenyl)-4-(methylsulfonyl)piperidin-1-yl)-N-(1,2,4-thiadiazol-5-yl)chroman-7-sulfonamide] | 3
27 | CS(=O)(=O)[C@H]1CCN([C@H]2CCOc3cc(S(=O)(=O)Nc4ncns4)ccc32)[C@@H](c2ccc(F)cc2)C1 [Example 163, (S)-4-((2R,4S)-2-(4-fluorophenyl)-4-(methylsulfonyl)piperidin-1-yl)-N-(1,2,4-thiadiazol-5-yl)chroman-7-sulfonamide] | 0.0223
28 | CS(=O)(=O)[C@H]1CCN([C@@H]2CCOc3cc(S(=O)(=O)Nc4ncns4)ccc32)[C@@H](c2ccc(F)cc2)C1 [Example 164, (R)-4-((2R,4S)-2-(4-fluorophenyl)-4-(methylsulfonyl)piperidin-1-yl)-N-(1,2,4-thiadiazol-5-yl)chroman-7-sulfonamide] | 0.208
29 | CS(=O)(=O)[C@@H]1CCN([C@@H]2CCOc3cc(S(=O)(=O)Nc4nccs4)c(F)cc32)[C@H](c2ccc(F)cc2)C1 [Example 165, (R)-6-fluoro-4-((2S,4R)-2-(4-fluorophenyl)-4-(methylsulfonyl)piperidin-1-yl)-N-(thiazol-2-yl)chroman-7-sulfonamide] | 1.01
30 | CS(=O)(=O)[C@@H]1CCN([C@H]2CCOc3cc(S(=O)(=O)Nc4nccs4)c(F)cc32)[C@H](c2ccc(F)cc2)C1 [Example 166, (S)-6-fluoro-4-((2S,4R)-2-(4-fluorophenyl)-4-(methylsulfonyl)piperidin-1-yl)-N-(thiazol-2-yl)chroman-7-sulfonamide] | 0.00212
31 | O=S(=O)(Nc1ncns1)c1ccc2c(c1)OCC[C@H]2N1CC[C@@](O)(C(F)(F)F)C[C@H]1c1ccc(F)cc1 [Example 167, (R)-4-((2S,4S)-2-(4-fluorophenyl)-4-hydroxy-4-(trifluoromethyl)piperidin-1-yl)-N-(1,2,4-thiadiazol-5-yl)chroman-7-sulfonamide] | 3
32 | O=S(=O)(Nc1ncns1)c1ccc2c(c1)OCC[C@@H]2N1CC[C@@](O)(C(F)(F)F)C[C@H]1c1ccc(F)cc1 [Example 168, (S)-4-((2S,4S)-2-(4-fluorophenyl)-4-hydroxy-4-(trifluoromethyl)piperidin-1-yl)-N-(1,2,4-thiadiazol-5-yl)chroman-7-sulfonamide] | 0.000878
